Laboratory results from the NIST ThermoML archive (doi:10.1016/j.jct.2018.08.007).
Several values for one entry are separate records, joined by “and”; a condition that tells them apart may be missing. Equal entries are not always repeated.

Assay: mn = molality of the nth substance listed, in mol/kg
Conditions: 100 kPa, Liquid; for viscosity: Capillary tube (Ostwald / Ubbelohde) method; for mass density: Vibrating tube method

CN(CC(=O)O)C(=N)N [N-amidinosarcasine] + O
Conditions | mass density, 293.15 K [kg/m3] | mass density, 298.15 K [kg/m3] | mass density, 303.15 K [kg/m3] | mass density, 308.15 K [kg/m3] | mass density, 313.15 K | viscosity, 293.15 K [mPa·s] | viscosity, 298.15 K [mPa·s] | viscosity, 303.15 K [mPa·s] | viscosity, 308.15 K [mPa·s] | viscosity, 313.15 K [mPa·s]
m1 = 0.02 | – | – | – | – | – | 1.008 | 0.895 | 0.804 | 0.723 | 0.658
m1 = 0.03 | – | – | – | – | – | 1.011 | 0.898 | 0.806 | 0.727 | 0.659
m1 = 0.0306 | 999.51 | 998.33 | 996.9 | 995.23 | 993.35 kg/m3 | – | – | – | – | –
m1 = 0.04 | 999.9 | 998.72 | 997.28 | 995.6 | 993.7 kg/m3 | 1.014 | 0.901 | 0.808 | 0.729 | 0.662
m1 = 0.0406 | 999.93 | 998.74 | 997.31 | 995.63 | 993.73 kg/m3 | – | – | – | – | –
m1 = 0.0477 | 1000.23 | 999.04 | 997.6 | 995.91 | 994 kg/m3 | – | – | – | – | –
m1 = 0.05 | 1000.33 | 999.13 | 997.69 | 996 | 994.09 kg/m3 | 1.017 | 0.904 | 0.81 | 0.731 | 0.664
m1 = 0.0548 | 1000.53 | 999.33 | 997.89 | 996.2 | 994.28 kg/m3 | – | – | – | – | –
m1 = 0.0564 | 1000.59 | 999.4 | 997.96 | 996.26 | 994.35 kg/m3 | – | – | – | – | –
m1 = 0.0597 | 1000.73 | 999.53 | 998.09 | 996.39 | 994.47 kg/m3 and 994.48 kg/m3 | 1.019 | 0.907 | 0.811 | 0.733 | 0.665
m1 = 0.0675 | 1001.06 | 999.86 | 998.41 | 996.71 | 994.79 kg/m3 | – | – | – | – | –
m1 = 0.0701 | 1001.17 | 999.96 | 998.52 | 996.82 | 994.89 kg/m3 | 1.024 | 0.91 | 0.817 | 0.737 | 0.669
m1 = 0.0727 | 1001.27 | 1000.07 | 998.63 | 996.92 | 995 kg/m3 | – | – | – | – | –
m1 = 0.0782 | 1001.5 | 1000.29 | 998.85 | 997.15 | 995.22 kg/m3 | – | – | – | – | –
m1 = 0.08 | 1001.58 | 1000.37 | 998.93 | 997.22 | 995.3 kg/m3 | 1.028 | 0.913 | 0.818 | 0.738 | 0.67
m1 = 0.0898 | 1001.98 | 1000.77 | 999.34 | 997.63 | 995.71 kg/m3 | – | – | – | – | –
m1 = 0.09 | 1001.99 | 1000.78 | 999.34 | 997.64 | 995.71 kg/m3 | 1.033 | 0.917 | 0.823 | 0.74 | 0.672
m1 = 0.0926 | 1002.1 | 1000.89 | 999.45 | 997.74 | 995.82 kg/m3 | – | – | – | – | –
m1 = 0.1038 | 1002.56 | 1001.35 | 999.92 | 998.21 | 996.3 kg/m3 | – | – | – | – | –
m1 = 0.1113 | 1002.87 | 1001.65 | 1000.23 | 998.53 | 996.62 kg/m3 | – | – | – | – | –
m1 = 0.1207 | 1003.25 | 1002.04 | 1000.62 | 998.93 | 997.03 kg/m3 | – | – | – | – | –
m1 = 0.1287 | 1003.58 | 1002.36 | 1000.96 | 999.26 | 997.39 kg/m3 | – | – | – | – | –
m1 = 0.1326 | 1003.74 | 1002.52 | 1001.12 | 999.43 | 997.56 kg/m3 | – | – | – | – | –

CN1CC(=O)NC1=N [creatinine] + O
Conditions | mass density, 293.15 K [kg/m3] | mass density, 298.15 K [kg/m3] | mass density, 303.15 K [kg/m3] | mass density, 308.15 K [kg/m3] | mass density, 313.15 K [kg/m3] | viscosity, 293.15 K [mPa·s] | viscosity, 298.15 K [mPa·s] | viscosity, 303.15 K [mPa·s] | viscosity, 308.15 K [mPa·s] | viscosity, 313.15 K [mPa·s]
m1 = 0.1001 | 1001.16 | 999.95 | 998.49 | 996.82 | 994.94 | – | – | – | – | –
m1 = 0.147 | 1002.53 | 1001.29 | 999.82 | 998.13 | 996.21 | – | – | – | – | –
m1 = 0.2001 | – | – | – | – | – | 1.053 | 0.935 | 0.837 | 0.755 | 0.685
m1 = 0.202 | 1004.12 | 1002.86 | 1001.37 | 999.64 | 997.69 | – | – | – | – | –
m1 = 0.25 | 1005.5 | 1004.22 | 1002.71 | 1000.97 | 999 | – | – | – | – | –
m1 = 0.2999 | – | – | – | – | – | 1.077 | 0.956 | 0.856 | 0.772 | 0.7
m1 = 0.3023 | 1006.99 | 1005.69 | 1004.16 | 1002.4 | 1000.43 | – | – | – | – | –
m1 = 0.3496 | 1008.33 | 1007.01 | 1005.48 | 1003.7 | 1001.71 | – | – | – | – | –
m1 = 0.3996 | – | – | – | – | – | 1.102 | 0.978 | 0.875 | 0.789 | 0.715
m1 = 0.4028 | 1009.83 | 1008.48 | 1006.94 | 1005.13 | 1003.12 | – | – | – | – | –
m1 = 0.5002 | – | – | – | – | – | 1.126 | 0.999 | 0.894 | 0.806 | 0.73
m1 = 0.5014 | 1012.57 | 1011.2 | 1009.63 | 1007.79 | 1005.76 | – | – | – | – | –
m1 = 0.5514 | 1013.95 | 1012.56 | 1010.97 | 1009.12 | 1007.08 | – | – | – | – | –
m1 = 0.6 | – | – | – | – | – | 1.15 | 1.02 | 0.912 | 0.822 | 0.745
m1 = 0.6018 | 1015.33 | 1013.93 | 1012.34 | 1010.48 | 1008.4 | – | – | – | – | –
m1 = 0.6087 | 1015.52 | 1014.11 | 1012.53 | 1010.65 | 1008.61 | – | – | – | – | –
m1 = 0.6491 | 1016.62 | 1015.21 | 1013.61 | 1011.72 | 1009.65 | – | – | – | – | –
m1 = 0.7 | – | – | – | – | – | 1.173 | 1.04 | 0.93 | 0.838 | 0.759
